Laboratory results: PubChem BioAssay (NCI)
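Method: 48-hour compound exposure of cells in 96-well plates, five concentrations, linear interpolation of endpoints. GI50 = concentration required for 50% inhibition of growth. The concentration for full growth arrest is given as TGI.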

Key:
Assay in all cases: growth of human tumour cells (NCI), 48 h; in the data active = GI50 below about 0.43 µM; inactive = the rest
MCF7 breast = test system: MCF7 breast
HOP-62 NSCLC = test system: HOP-62 NSCLC
OVCAR-5 ovarian = test system: OVCAR-5 ovarian
SF-539 CNS = test system: SF-539 CNS
A498 renal = test system: A498 renal
M14 melanoma = test system: M14 melanoma
HOP-92 NSCLC = test system: HOP-92 NSCLC
NCI/ADR-RES ovarian = test system: NCI/ADR-RES ovarian
ACHN renal = test system: ACHN renal
RXF 393 renal = test system: RXF 393 renal
HCT-15 colon = test system: HCT-15 colon
RPMI-8226 leukemia = test system: RPMI-8226 leukemia
SR leukemia = test system: SR leukemia
OVCAR-4 ovarian = test system: OVCAR-4 ovarian
UO-31 renal = test system: UO-31 renal
SNB-19 CNS = test system: SNB-19 CNS
MDA-MB-231 breast = test system: MDA-MB-231 breast
T-47D breast = test system: T-47D breast
HT29 colon = test system: HT29 colon
EKVX NSCLC = test system: EKVX NSCLC
SF-268 CNS = test system: SF-268 CNS
MALME-3M melanoma = test system: MALME-3M melanoma
OVCAR-3 ovarian = test system: OVCAR-3 ovarian
BT-549 breast = test system: BT-549 breast
DU-145 prostate = test system: DU-145 prostate
UACC-257 melanoma = test system: UACC-257 melanoma
SK-MEL-5 melanoma = test system: SK-MEL-5 melanoma
IGROV1 ovarian = test system: IGROV1 ovarian
UACC-62 melanoma = test system: UACC-62 melanoma
A549 NSCLC = test system: A549 NSCLC
HCC-2998 colon = test system: HCC-2998 colon
SK-MEL-2 melanoma = test system: SK-MEL-2 melanoma
NCI-H23 lung = test system: NCI-H23 lung
NCI-H522 lung = test system: NCI-H522 lung
SK-OV-3 ovarian = test system: SK-OV-3 ovarian
NCI-H460 lung = test system: NCI-H460 lung
HL-60(TB) leukemia = test system: HL-60(TB) leukemia
SNB-75 CNS = test system: SNB-75 CNS
TK-10 renal = test system: TK-10 renal
CAKI-1 renal = test system: CAKI-1 renal
OVCAR-8 ovarian = test system: OVCAR-8 ovarian
KM12 colon = test system: KM12 colon
786-0 renal = test system: 786-0 renal
MOLT-4 leukemia = test system: MOLT-4 leukemia
CCRF-CEM leukemia = test system: CCRF-CEM leukemia
COLO 205 colon = test system: COLO 205 colon
SN12C renal = test system: SN12C renal
MDA-MB-435 = test system: MDA-MB-435
SF-295 CNS = test system: SF-295 CNS
K-562 leukemia = test system: K-562 leukemia
U251 CNS = test system: U251 CNS
PC-3 prostate = test system: PC-3 prostate
LOX IMVI melanoma = test system: LOX IMVI melanoma
HCT-116 colon = test system: HCT-116 colon
NCI-H226 lung = test system: NCI-H226 lung

N=C(N)SCc1ccc([N+](=O)[O-])cc1[N+](=O)[O-]
40 µM: TGI (OVCAR-5 ovarian)
18.9 µM: TGI (HT29 colon)
16.6 µM: TGI (SK-MEL-2 melanoma)
36.6 µM: TGI (MDA-MB-231 breast)
17 µM: TGI (UACC-257 melanoma)
18.7 µM: TGI (OVCAR-4 ovarian) | TGI (MALME-3M melanoma)
50.5 µM: TGI (SNB-75 CNS)
11.4 µM: TGI (SR leukemia) | TGI (T-47D breast)
29.3 µM: TGI (MDA-MB-435)
19.7 µM: TGI (TK-10 renal)
13.6 µM: TGI (HCT-116 colon)
66.4 µM: TGI (A549 NSCLC)
21 µM: TGI (K-562 leukemia)
15.3 µM: TGI (IGROV1 ovarian)
21.1 µM: TGI (ACHN renal)
18.1 µM: TGI (HCC-2998 colon)
72.2 µM: TGI (RPMI-8226 leukemia)
69.8 µM: TGI (SF-268 CNS)
27.8 µM: TGI (786-0 renal)
7.96 µM: TGI (COLO 205 colon)
25.3 µM: TGI (UACC-62 melanoma)
79.1 µM: TGI (HOP-62 NSCLC)
29.4 µM: TGI (M14 melanoma)
62.4 µM: TGI (NCI-H226 lung)
3.12 µM: TGI (NCI-H522 lung)
19.6 µM: TGI (SK-MEL-5 melanoma)
27.2 µM: TGI (SN12C renal)
4.13 µM: TGI (RXF 393 renal)
25.8 µM: TGI (EKVX NSCLC)
22.7 µM: TGI (KM12 colon)
15.2 µM: TGI (OVCAR-3 ovarian)
53.7 µM: TGI (SK-OV-3 ovarian)
16.9 µM: TGI (MCF7 breast)
87.2 µM: TGI (PC-3 prostate)
36.2 µM: TGI (NCI-H23 lung)
25.7 µM: TGI (SF-539 CNS)
89 µM: TGI (NCI/ADR-RES ovarian)
14.3 µM: TGI (UO-31 renal)
19.4 µM: TGI (HCT-15 colon)
inactive: GI50 (MCF7 breast) 2.04 µM | GI50 (HOP-62 NSCLC) 33.9 µM | GI50 (OVCAR-5 ovarian) 23.1 µM | GI50 (SF-539 CNS) 11 µM | GI50 (A498 renal) 29.9 µM | GI50 (M14 melanoma) 12.8 µM | GI50 (HOP-92 NSCLC) 2.4 µM | GI50 (NCI/ADR-RES ovarian) 23 µM | GI50 (ACHN renal) 8.04 µM | GI50 (RXF 393 renal) 1.38 µM | GI50 (HCT-15 colon) 5.01 µM | GI50 (RPMI-8226 leukemia) 5.26 µM | GI50 (SR leukemia) 3.09 µM | GI50 (OVCAR-4 ovarian) 6.01 µM | GI50 (UO-31 renal) 3.21 µM | GI50 (SNB-19 CNS) 26 µM | GI50 (MDA-MB-231 breast) 12 µM | GI50 (T-47D breast) 2.59 µM | GI50 (HT29 colon) 5.44 µM | GI50 (EKVX NSCLC) 11 µM | GI50 (SF-268 CNS) 13.9 µM | GI50 (MALME-3M melanoma) 3.48 µM | GI50 (OVCAR-3 ovarian) 4.54 µM | GI50 (BT-549 breast) 7.35 µM | GI50 (DU-145 prostate) 2.25 µM | GI50 (UACC-257 melanoma) 4.44 µM | GI50 (SK-MEL-5 melanoma) 6.38 µM | GI50 (IGROV1 ovarian) 4.33 µM | GI50 (UACC-62 melanoma) 11.3 µM | GI50 (A549 NSCLC) 21.6 µM | GI50 (HCC-2998 colon) 6.05 µM | GI50 (SK-MEL-2 melanoma) 4.5 µM | GI50 (NCI-H23 lung) 10.6 µM | GI50 (NCI-H522 lung) 1.48 µM | GI50 (SK-OV-3 ovarian) 20.8 µM | GI50 (NCI-H460 lung) 12.7 µM | GI50 (HL-60(TB) leukemia) 3.38 µM | GI50 (SNB-75 CNS) 19.6 µM | GI50 (TK-10 renal) 5.9 µM | GI50 (CAKI-1 renal) 4.86 µM | GI50 (OVCAR-8 ovarian) 14.3 µM | GI50 (KM12 colon) 9.5 µM | GI50 (786-0 renal) 11.8 µM | GI50 (MOLT-4 leukemia) 3.07 µM | GI50 (CCRF-CEM leukemia) 3.77 µM | GI50 (COLO 205 colon) 2.9 µM | GI50 (SN12C renal) 12.1 µM | GI50 (MDA-MB-435) 11.8 µM | GI50 (SF-295 CNS) 31.3 µM | GI50 (K-562 leukemia) 3.42 µM | GI50 (U251 CNS) 19.2 µM | GI50 (PC-3 prostate) 13.4 µM | GI50 (LOX IMVI melanoma) 8.66 µM | GI50 (HCT-116 colon) 3.53 µM | GI50 (NCI-H226 lung) 25.3 µM
17.3 µM: TGI (HL-60(TB) leukemia)
15.8 µM: TGI (CAKI-1 renal)
9.95 µM: TGI (DU-145 prostate)
20.2 µM: TGI (MOLT-4 leukemia)
28.6 µM: TGI (BT-549 breast)
> 100 µM: TGI (CCRF-CEM leukemia) | TGI (SF-295 CNS) | TGI (U251 CNS)
25 µM: TGI (LOX IMVI melanoma)
66.6 µM: TGI (A498 renal)
75.7 µM: TGI (OVCAR-8 ovarian)
79 µM: TGI (SNB-19 CNS)
32.7 µM: TGI (NCI-H460 lung)
9.91 µM: TGI (HOP-92 NSCLC)

CSc1nc(N)c2c(n1)NC(c1ccccc1)C1CCc3ccccc3C1=N2 (stereo not given)
> 100 µM: TGI (MCF7 breast) | TGI (HOP-62 NSCLC) | TGI (OVCAR-5 ovarian) | TGI (SF-539 CNS) | TGI (A498 renal) | TGI (M14 melanoma) | TGI (HOP-92 NSCLC) | TGI (NCI/ADR-RES ovarian) | TGI (ACHN renal) | TGI (RXF 393 renal) | TGI (HCT-15 colon) | TGI (RPMI-8226 leukemia) | TGI (OVCAR-4 ovarian) | TGI (SNB-19 CNS) | TGI (MDA-MB-231 breast) | TGI (HT29 colon) | TGI (EKVX NSCLC) | TGI (SF-268 CNS) | TGI (MALME-3M melanoma) | TGI (OVCAR-3 ovarian) | TGI (BT-549 breast) | TGI (DU-145 prostate) | TGI (UACC-257 melanoma) | TGI (SK-MEL-5 melanoma) | TGI (UACC-62 melanoma) | TGI (A549 NSCLC) | TGI (HCC-2998 colon) | TGI (NCI-H23 lung) | TGI (SK-OV-3 ovarian) | TGI (NCI-H460 lung) | TGI (HL-60(TB) leukemia) | TGI (SNB-75 CNS) | TGI (TK-10 renal) | TGI (CAKI-1 renal) | TGI (OVCAR-8 ovarian) | TGI (KM12 colon) | TGI (786-0 renal) | TGI (CCRF-CEM leukemia) | TGI (COLO 205 colon) | TGI (SN12C renal) | TGI (MDA-MB-435) | TGI (SF-295 CNS) | TGI (K-562 leukemia) | TGI (U251 CNS) | TGI (PC-3 prostate) | TGI (LOX IMVI melanoma) | TGI (HCT-116 colon) | TGI (NCI-H226 lung)
15.7 µM: TGI (T-47D breast)
38.8 µM: TGI (MOLT-4 leukemia)
5.54 µM: TGI (SR leukemia)
74 µM: TGI (IGROV1 ovarian)
8.54 µM: TGI (SK-MEL-2 melanoma)
9.72 µM: TGI (UO-31 renal)
inactive: GI50 (MCF7 breast) 52 µM | GI50 (HOP-62 NSCLC) > 100 µM | GI50 (OVCAR-5 ovarian) > 100 µM | GI50 (SF-539 CNS) > 100 µM | GI50 (A498 renal) > 100 µM | GI50 (M14 melanoma) 11.9 µM | GI50 (HOP-92 NSCLC) 3.08 µM | GI50 (NCI/ADR-RES ovarian) 5.58 µM | GI50 (ACHN renal) 84.4 µM | GI50 (RXF 393 renal) 4.71 µM | GI50 (HCT-15 colon) 7.61 µM | GI50 (RPMI-8226 leukemia) 5.72 µM | GI50 (SR leukemia) 1.65 µM | GI50 (OVCAR-4 ovarian) 4.38 µM | GI50 (UO-31 renal) 0.737 µM | GI50 (SNB-19 CNS) > 100 µM | GI50 (MDA-MB-231 breast) > 100 µM | GI50 (T-47D breast) 2.27 µM | GI50 (HT29 colon) 7.63 µM | GI50 (EKVX NSCLC) 7 µM | GI50 (SF-268 CNS) > 100 µM | GI50 (MALME-3M melanoma) > 100 µM | GI50 (OVCAR-3 ovarian) 6.85 µM | GI50 (BT-549 breast) > 100 µM | GI50 (DU-145 prostate) > 100 µM | GI50 (UACC-257 melanoma) > 100 µM | GI50 (SK-MEL-5 melanoma) 4.79 µM | GI50 (IGROV1 ovarian) 1.61 µM | GI50 (UACC-62 melanoma) 6.01 µM | GI50 (A549 NSCLC) > 100 µM | GI50 (HCC-2998 colon) > 100 µM | GI50 (SK-MEL-2 melanoma) 4.13 µM | GI50 (NCI-H23 lung) 6.16 µM | GI50 (NCI-H522 lung) 2.59 µM | GI50 (SK-OV-3 ovarian) > 100 µM | GI50 (NCI-H460 lung) 8.29 µM | GI50 (HL-60(TB) leukemia) 4 µM | GI50 (SNB-75 CNS) > 100 µM | GI50 (TK-10 renal) > 100 µM | GI50 (CAKI-1 renal) 31.3 µM | GI50 (OVCAR-8 ovarian) 5.39 µM | GI50 (KM12 colon) 6.52 µM | GI50 (786-0 renal) > 100 µM | GI50 (MOLT-4 leukemia) 1.85 µM | GI50 (CCRF-CEM leukemia) 3.33 µM | GI50 (COLO 205 colon) 25.8 µM | GI50 (SN12C renal) 30.9 µM | GI50 (MDA-MB-435) 55.5 µM | GI50 (SF-295 CNS) 25.6 µM | GI50 (K-562 leukemia) 4.12 µM | GI50 (U251 CNS) > 100 µM | GI50 (PC-3 prostate) 2.56 µM | GI50 (LOX IMVI melanoma) 7.16 µM | GI50 (HCT-116 colon) 7.39 µM | GI50 (NCI-H226 lung) 42.3 µM
8.84 µM: TGI (NCI-H522 lung)
